Data published in patent US9334238B2, “N-substituted pyridinylidenes for combating animal pests” (BASF SE, priority 2012, dated 2016).

What was measured:
Type in all cases: in vivo
[1] = test system: Mediterranean fruitfly (Ceratitis capitata); assay: Mediterranean fruitfly test, insect diet with eggs in microtiter plates; conditions: 120 h, 2500 ppm sprayed onto insect diet, egg and larval mortality, 5 days, read-out: mortality in comparison with untreated controls
Protocol: B.7 Mediterranean Fruitfly (Ceratitis capitata)
For evaluating control of Mediterranean fruitfly (Ceratitis capitata) the test unit consists of microtiter plates containing an insect diet and 50-80 C. capitata eggs.
The compounds were formulated using a solution containing 75% v/v water and 25% v/v DMSO. Different concentrations of formulated compounds were sprayed onto the insect diet at 5 μl, using a custom built micro atomizer, at two replications.
After application, microtiter plates were incubated at about 28±1° C. and about 80±5% relative humidity for 5 days. Egg and larval mortality was then visually assessed.

[2] = test system: green peach aphid (Myzus persicae); assay: Green peach aphid systemic test, artificial diet in 96-well microtiter plates; conditions: 72 h, 2500 ppm in aphid diet, adult aphids, 3 days, read-out: mortality in comparison with untreated controls
Text: B.1 Green Peach Aphid (Myzus persicae)
For evaluating control of green peach aphid (Myzus persicae) through systemic means, the test unit consisted of 96-well-microtiter plates containing liquid artificial diet under an artificial membrane.
The compounds were formulated using a solution containing 75% v/v water and 25% v/v DMSO. Different concentrations of formulated compounds were pipetted into the aphid diet, using a custom built pipetter, at two replications.
After application, 5-8 adult aphids were placed on the artificial membrane inside the microtiter plate wells. The aphids were then allowed to suck on the treated aphid diet and incubated at about 23±1° C. and about 50±5% relative humidity for 3 days. Aphid mortality and fecundity was then visually assessed.

[3] = test system: Rice Brown Plant Hopper (Nilaparvata lugens); assay: Rice brown plant hopper test, sprayed rice seedlings; conditions: 500 ppm spray on rice seedlings, adults, after 72 hours, read-out: mortality in comparison with untreated controls
Protocol: B.6 Rice Brown Plant Hopper (Nilaparvata lugens)
(§1) Rice seedlings were cleaned and washed 24 hours before spraying. The active compounds was formulated in 50:50 acetone:water (vol:vol) and 0.1% vol/vol surfactant (EL 620) was added. Potted rice seedlings were sprayed with 5 ml test solution, air dried, placed in cages and inoculated with 10 adults. Treated rice plants were kept at about 28-29° C. and relative humidity of about 50-60%. Percent mortality was recorded after 72 hours.

[4] = test system: Cowpea Aphid (Aphis craccivora); assay: Cowpea aphid test, sprayed potted cowpea plants; conditions: 500 ppm spray on infested cowpea plants, after 72 hours, read-out: mortality in comparison with untreated controls
Protocol: B.2 Cowpea Aphid (Aphis craccivora)
The active compound was dissolved at the desired concentration in a mixture of 1:1 (vol:vol) distilled water: acetone. Surfactant (Alkamuls® EL 620) was added at a rate of 0.1% (vol/vol). The test solution was prepared at the day of use.
Potted cowpea plants were colonized with approximately 50-100 aphids of various stages by manually transferring a leaf tissue cut from infested plant 24 hours before application. Plants were sprayed after the pest population has been recorded. Treated plants were maintained on light carts at about 28° C. Percent mortality was assessed after 72 hours.

[5] = test system: Orchid thrips (dichromothrips corbetti); assay: Orchid thrips floral-immersion test; conditions: orchid flowers dipped, adult thrips, 72 hours after treatment, read-out: mortality in comparison with untreated controls
Protocol: B.4 Orchid thrips (dichromothrips corbetti)
Dichromothrips corbetti adults used for bioassay were obtained from a colony maintained continuously under laboratory conditions. For testing purposes, the test compound was diluted in a 1:1 mixture of acetone:water (vol:vol), plus 0.01% vol/vol Alkamuls® EL 620 surfactant.
Thrips potency of each compound was evaluated by using a floral-immersion technique. Plastic petri dishes were used as test arenas. All petals of individual, intact orchid flowers were dipped into treatment solution and allowed to dry. Treated flowers were placed into individual petri dishes along with about 20 adult thrips. The petri dishes were then covered with lids. All test arenas were held under continuous light and a temperature of about 28° C. for duration of the assay. After 3 days, the numbers of live thrips were counted on each flower, and along inner walls of each petri dish. The percent mortality was recorded 72 hours after treatment.

[6] = test system: vetch aphid (Megoura viciae); assay: Vetch aphid contact/systemic test, broad bean leaf disks; conditions: foliar, 120 h, 2500 ppm sprayed onto leaf disks, adult aphids, 5 days, read-out: mortality in comparison with untreated controls
Protocol: B.3 Vetch Aphid (Megoura viciae)
For evaluating control of vetch aphid (Megoura viciae) through contact or systemic means the test unit consisted of 24-well-microtiter plates containing broad bean leaf disks.
The compounds were formulated using a solution containing 75% v/v water and 25% v/v DMSO. Different concentrations of formulated compounds were sprayed onto the leaf disks at 2.5 μl, using a custom built micro atomizer, at two replications.
After application, the leaf disks were air-dried and 5-8 adult aphids placed on the leaf disks inside the microtiter plate wells. The aphids were then allowed to suck on the treated leaf disks and incubated at about 23±1° C. and about 50±5% relative humidity for 5 days. Aphid mortality and fecundity was then visually assessed.

[7] = test system: Rice Green Leafhopper (Nephotettix virescens); assay: Rice green leafhopper test, sprayed rice seedlings; conditions: 500 ppm spray on rice seedlings, adults, after 72 hours, read-out: mortality in comparison with untreated controls
Protocol: B.5 Rice Green Leafhopper (Nephotettix virescens)
as §1, with “compounds were” for “compounds was”, “acetone:water (vol:vol),” for “acetone:water (vol:vol)”, “620) wss” for “620) was”

O=C(/C=C1\C=CC=CN1Cc1ccc(Cl)nc1)C(F)(F)F [E-1, (3E)-3-[1-[(6-chloro-3-pyridyl)methyl]-2-pyridylidene]-1,1,1-trifluoro-propan-2-one]
≥ 75%: mortality at 2500 ppm [1] | mortality at 2500 ppm [2] | mortality at 500 ppm [3] | mortality at 500 ppm [4] | mortality at 500 ppm [5] | mortality at 2500 ppm [6] | mortality at 500 ppm [7]
